Reference: ChEMBL document CHEMBL3217726, “Asymmetric synthesis of potent chroman-based Rho kinase (ROCK-II) inhibitors” (Medchemcomm, 2011)

Tests used:
[1] = target: Rho-associated protein kinase 2 (Homo sapiens, UniProt O75116); assay: Inhibition of ROCK2 (unknown origin) after 4 hrs by HTRF assay
[2] = Inhibition of PKA (unknown origin) after 70 mins by luminescence assay; parameters: species or system Homo sapiens
[3] = target: Serine/threonine-protein kinase MRCK alpha (Homo sapiens, UniProt Q5VT25); assay: Inhibition of MRCK-alpha (unknown origin) using LCB-AKRRRLSSLRA-NH2 as substrate after 75 mins by luminescence assay
[4] = target: Rho-associated protein kinase 2 (Rattus norvegicus, UniProt Q62868); assay: Inhibition of ROCK2-mediated myosin light chain bis-phosphorylation in rat A7r5 cells after 1 hr by TO-PRO-3 iodide staining-based assay; type: cell-based
Homo sapiens [5] = species on record: Homo sapiens; assay: Selectivity ratio of IC50 for PKA (unknown origin) to IC50 for ROCK2 (unknown origin)
Homo sapiens [6] = species on record: Homo sapiens; assay: Selectivity ratio of IC50 for MRCK-alpha (unknown origin) to IC50 for ROCK2 (unknown origin)

Chain of Rho-associated protein kinase 2 (Rattus norvegicus, UniProt Q62868) (Q62868 whole entry): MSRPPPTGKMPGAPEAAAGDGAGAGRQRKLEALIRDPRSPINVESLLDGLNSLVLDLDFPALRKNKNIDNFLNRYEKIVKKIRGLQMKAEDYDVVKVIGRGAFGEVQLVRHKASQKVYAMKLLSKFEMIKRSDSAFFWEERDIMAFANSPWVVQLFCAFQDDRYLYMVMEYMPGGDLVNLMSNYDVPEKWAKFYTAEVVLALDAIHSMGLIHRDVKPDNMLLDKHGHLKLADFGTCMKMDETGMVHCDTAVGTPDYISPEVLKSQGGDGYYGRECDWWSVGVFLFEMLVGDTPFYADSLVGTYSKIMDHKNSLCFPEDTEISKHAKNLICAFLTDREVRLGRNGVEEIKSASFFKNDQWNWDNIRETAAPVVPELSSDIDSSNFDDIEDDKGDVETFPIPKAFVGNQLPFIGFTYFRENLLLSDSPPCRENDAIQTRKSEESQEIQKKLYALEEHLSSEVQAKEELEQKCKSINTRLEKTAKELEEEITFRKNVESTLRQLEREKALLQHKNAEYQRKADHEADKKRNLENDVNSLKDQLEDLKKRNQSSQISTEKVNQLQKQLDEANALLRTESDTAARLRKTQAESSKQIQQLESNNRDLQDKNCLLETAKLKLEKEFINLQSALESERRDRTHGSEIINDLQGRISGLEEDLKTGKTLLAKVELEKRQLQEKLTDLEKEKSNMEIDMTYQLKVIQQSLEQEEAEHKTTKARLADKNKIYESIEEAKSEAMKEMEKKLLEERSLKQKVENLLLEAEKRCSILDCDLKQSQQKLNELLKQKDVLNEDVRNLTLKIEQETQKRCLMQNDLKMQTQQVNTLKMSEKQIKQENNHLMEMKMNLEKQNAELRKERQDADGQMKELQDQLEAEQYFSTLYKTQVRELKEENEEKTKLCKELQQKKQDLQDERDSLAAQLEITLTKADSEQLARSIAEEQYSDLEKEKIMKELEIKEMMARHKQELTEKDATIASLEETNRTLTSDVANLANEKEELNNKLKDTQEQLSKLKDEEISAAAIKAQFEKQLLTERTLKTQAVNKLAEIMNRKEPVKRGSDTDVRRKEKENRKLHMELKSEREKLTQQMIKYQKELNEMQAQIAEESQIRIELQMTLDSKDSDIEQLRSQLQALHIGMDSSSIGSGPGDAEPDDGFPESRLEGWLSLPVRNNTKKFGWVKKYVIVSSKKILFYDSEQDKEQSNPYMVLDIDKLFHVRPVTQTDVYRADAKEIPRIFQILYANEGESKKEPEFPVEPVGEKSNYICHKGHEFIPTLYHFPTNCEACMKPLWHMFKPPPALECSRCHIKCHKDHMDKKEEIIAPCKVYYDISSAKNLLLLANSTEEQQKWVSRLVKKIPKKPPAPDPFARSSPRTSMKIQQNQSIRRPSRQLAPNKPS
Chain of Serine/threonine-protein kinase MRCK alpha (Q5VT25 whole entry): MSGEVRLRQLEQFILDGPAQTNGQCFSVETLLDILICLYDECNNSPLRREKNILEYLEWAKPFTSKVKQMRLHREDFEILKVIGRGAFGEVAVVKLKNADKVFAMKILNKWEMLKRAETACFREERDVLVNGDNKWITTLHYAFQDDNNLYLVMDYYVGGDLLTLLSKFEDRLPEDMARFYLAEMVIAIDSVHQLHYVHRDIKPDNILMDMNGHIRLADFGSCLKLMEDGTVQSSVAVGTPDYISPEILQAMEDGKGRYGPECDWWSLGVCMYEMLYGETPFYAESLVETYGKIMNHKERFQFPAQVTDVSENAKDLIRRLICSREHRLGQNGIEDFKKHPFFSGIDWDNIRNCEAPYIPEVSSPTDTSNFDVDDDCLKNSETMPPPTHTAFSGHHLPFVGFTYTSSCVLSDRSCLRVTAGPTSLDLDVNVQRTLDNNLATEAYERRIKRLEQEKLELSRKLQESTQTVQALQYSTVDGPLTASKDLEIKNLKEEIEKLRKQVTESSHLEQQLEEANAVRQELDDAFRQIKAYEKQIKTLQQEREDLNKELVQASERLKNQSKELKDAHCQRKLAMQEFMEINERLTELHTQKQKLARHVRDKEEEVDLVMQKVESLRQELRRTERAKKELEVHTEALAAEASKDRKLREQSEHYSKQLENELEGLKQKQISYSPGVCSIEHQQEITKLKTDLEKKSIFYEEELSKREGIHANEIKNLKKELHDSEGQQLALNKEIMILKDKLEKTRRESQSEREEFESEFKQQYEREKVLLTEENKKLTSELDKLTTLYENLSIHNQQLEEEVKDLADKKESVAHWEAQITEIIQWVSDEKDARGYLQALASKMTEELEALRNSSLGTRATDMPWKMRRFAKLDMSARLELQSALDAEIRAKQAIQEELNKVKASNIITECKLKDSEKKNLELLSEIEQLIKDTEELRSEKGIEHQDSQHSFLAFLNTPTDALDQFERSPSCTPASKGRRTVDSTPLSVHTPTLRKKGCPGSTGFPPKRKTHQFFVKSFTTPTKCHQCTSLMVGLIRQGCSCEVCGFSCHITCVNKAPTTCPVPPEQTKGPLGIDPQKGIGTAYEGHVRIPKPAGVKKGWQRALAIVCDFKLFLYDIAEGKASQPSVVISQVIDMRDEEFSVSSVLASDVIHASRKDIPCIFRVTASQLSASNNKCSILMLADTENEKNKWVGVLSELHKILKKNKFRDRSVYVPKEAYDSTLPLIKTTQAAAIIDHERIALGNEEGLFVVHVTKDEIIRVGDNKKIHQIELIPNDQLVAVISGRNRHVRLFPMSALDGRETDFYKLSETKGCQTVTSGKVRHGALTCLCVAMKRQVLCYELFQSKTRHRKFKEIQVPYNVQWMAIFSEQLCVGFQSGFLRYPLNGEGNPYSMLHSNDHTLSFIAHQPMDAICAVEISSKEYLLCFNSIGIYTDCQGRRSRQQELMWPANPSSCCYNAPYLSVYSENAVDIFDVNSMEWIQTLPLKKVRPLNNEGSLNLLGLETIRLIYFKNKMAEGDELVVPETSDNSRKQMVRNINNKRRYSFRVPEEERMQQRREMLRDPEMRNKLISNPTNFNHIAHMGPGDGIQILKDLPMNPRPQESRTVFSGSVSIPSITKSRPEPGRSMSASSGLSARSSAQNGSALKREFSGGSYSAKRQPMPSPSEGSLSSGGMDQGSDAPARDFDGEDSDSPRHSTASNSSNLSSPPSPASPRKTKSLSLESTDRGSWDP
Chain of Rho-associated protein kinase 2 (Homo sapiens, UniProt O75116) (O75116 whole entry): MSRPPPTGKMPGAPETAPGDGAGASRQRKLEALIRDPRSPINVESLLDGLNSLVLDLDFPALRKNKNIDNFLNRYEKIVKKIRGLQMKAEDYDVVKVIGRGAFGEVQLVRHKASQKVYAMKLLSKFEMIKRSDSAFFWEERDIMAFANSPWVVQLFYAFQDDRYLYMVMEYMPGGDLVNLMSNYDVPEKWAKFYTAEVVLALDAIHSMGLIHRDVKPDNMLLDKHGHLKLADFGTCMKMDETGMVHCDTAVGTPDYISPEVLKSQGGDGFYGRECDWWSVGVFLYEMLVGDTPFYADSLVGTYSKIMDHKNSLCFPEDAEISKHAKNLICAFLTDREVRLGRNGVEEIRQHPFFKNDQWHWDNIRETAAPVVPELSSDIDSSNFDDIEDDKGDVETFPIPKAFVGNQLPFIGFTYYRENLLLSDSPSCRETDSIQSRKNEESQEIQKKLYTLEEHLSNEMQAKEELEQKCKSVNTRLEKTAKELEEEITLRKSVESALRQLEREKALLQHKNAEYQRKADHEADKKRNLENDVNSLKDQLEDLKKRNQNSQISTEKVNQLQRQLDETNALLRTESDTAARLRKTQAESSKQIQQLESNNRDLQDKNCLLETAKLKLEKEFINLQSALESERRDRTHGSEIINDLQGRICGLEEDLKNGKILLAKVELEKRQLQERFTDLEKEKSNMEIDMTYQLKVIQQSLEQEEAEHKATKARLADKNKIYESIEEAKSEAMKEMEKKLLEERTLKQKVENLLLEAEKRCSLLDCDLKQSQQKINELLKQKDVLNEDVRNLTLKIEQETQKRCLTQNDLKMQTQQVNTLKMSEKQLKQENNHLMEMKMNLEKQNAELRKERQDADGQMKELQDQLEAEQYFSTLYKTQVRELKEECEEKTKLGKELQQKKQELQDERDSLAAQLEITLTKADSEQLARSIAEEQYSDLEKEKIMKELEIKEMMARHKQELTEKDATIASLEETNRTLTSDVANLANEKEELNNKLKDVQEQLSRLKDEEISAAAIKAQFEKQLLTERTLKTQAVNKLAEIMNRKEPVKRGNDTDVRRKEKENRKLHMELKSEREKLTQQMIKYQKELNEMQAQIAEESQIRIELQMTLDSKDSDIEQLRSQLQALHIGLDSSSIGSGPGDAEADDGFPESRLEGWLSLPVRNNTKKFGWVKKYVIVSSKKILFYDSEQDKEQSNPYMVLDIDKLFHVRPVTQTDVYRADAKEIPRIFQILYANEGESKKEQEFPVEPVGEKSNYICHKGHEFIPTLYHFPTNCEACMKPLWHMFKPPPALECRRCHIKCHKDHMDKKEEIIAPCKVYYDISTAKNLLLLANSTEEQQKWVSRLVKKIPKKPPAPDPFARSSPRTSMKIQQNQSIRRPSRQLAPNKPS

IC50 [1] [nM]	IC50 [2] [nM]	IC50 [3] [nM]	IC50 [4] [nM]	Ratio IC50 (Homo sapiens [5])	Ratio IC50 (Homo sapiens [6])	SMILES
< 1	3460	261	< 4	–	–	COc1ccc2c(c1)C[C@H](C(=O)Nc1ccc(-c3cn[nH]c3)cc1O[C@@H]1CCN(C)C1)CO2
–	> 20000	–	43	–	–	COc1ccc2c(c1)C[C@@H](C(=O)Nc1ccc(-c3cn[nH]c3)cc1OCCN(C)C)CO2
< 1	7380	294	< 4	–	–	COc1ccc2c(c1)C[C@H](C(=O)Nc1ccc(-c3cn[nH]c3)cc1O[C@H]1CCN(C)C1)CO2

Continued, compound first:

SMILES	IC50 [1] [nM]	IC50 [2] [nM]	IC50 [3] [nM]	IC50 [4] [nM]	Ratio IC50 (Homo sapiens [5])	Ratio IC50 (Homo sapiens [6])
COc1ccc2c(c1)C[C@@H](C(=O)Nc1ccc(-c3cn[nH]c3)cc1OCCN1CCCC1)CO2	30	> 20000	> 20000	411	–	–
COc1ccc2c(c1)C[C@@H](C(=O)Nc1ccc(-c3cn[nH]c3)cc1OCCCO)CO2	35	> 20000	–	519	–	–
COc1ccc2c(c1)C[C@H](C(=O)Nc1ccc(-c3cn[nH]c3)cc1OCCN(C)C)CO2	–	1740	–	< 4	–	–
COc1ccc2c(c1)C[C@H](C(=O)Nc1ccc(-c3cn[nH]c3)cc1OCCCO)CO2	< 1	652	74	< 4	–	–
COc1ccc2c(c1)C[C@@H](C(=O)Nc1ccc(-c3cn[nH]c3)cc1O[C@@H]1CCN(C)C1)CO2	14	> 20000	> 20000	32	–	–
COc1ccc2c(c1)C[C@@H](C(=O)Nc1ccc(-c3cn[nH]c3)cc1O[C@H]1CCN(C)C1)CO2	34	> 20000	–	900	–	–
COc1ccc2c(c1)C[C@H](C(=O)Nc1ccc(-c3cn[nH]c3)cc1OCCN1CCCC1)CO2	< 1	9600	1270	< 4	> 9500	> 1200
